Target: Myc/Max binding to DNA (Homo sapiens, UniProt P01106)
Assay: Electrophoretic mobility shift assay (EMSA) of Myc/Max binding to DNA
Format: biochemical
Conditions: EMSA; for remaining activity at 100 µM / Bound DNA (%) (100uM): 100 uM test compound; for remaining activity at 100 µM: read-out: Bound DNA (%) (100uM); for remaining activity at 50 µM: 50 uM test compound, read-out: Bound DNA (%) (50uM)
Procedure: We also tested our best hit compound Min9 (NUCC-0176234) and newly synthesized analogs for effects of these compounds on Myc/Max binding to DNA in electrophoretic mobility shift assays (EMSAs). (See FIG. 5a and FIG. 5b). We expected the active compounds to impair Myc/Max binding to DNA. Several strucutural analogs of Min9 were tested over multiple doses for inhibiting Myc-DNA binding and we observed a dose-dependent inhibition. (See FIG. 5c).
Additional compounds were synthesized and tested in the EMSA assay at concentrations of 200 μM, 100 μM, and 50 μM.

Myc/Max binding to DNA, sequence (P01106 whole entry): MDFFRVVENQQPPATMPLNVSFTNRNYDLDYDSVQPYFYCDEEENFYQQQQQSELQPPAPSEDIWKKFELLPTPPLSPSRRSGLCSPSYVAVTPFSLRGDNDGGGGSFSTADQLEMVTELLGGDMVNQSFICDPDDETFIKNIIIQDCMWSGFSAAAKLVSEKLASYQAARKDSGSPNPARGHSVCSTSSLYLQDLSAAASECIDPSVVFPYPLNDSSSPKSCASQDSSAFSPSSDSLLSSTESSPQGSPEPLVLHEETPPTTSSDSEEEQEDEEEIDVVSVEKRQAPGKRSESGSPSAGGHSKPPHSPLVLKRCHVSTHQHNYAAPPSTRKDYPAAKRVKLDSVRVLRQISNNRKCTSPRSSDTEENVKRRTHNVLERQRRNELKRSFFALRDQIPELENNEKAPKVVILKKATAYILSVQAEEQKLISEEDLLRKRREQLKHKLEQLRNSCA

| Structure (SMILES) | remaining activity at 100 µM [%] | Bound DNA (%) (100uM) | remaining activity at 50 µM [%] |
| --- | --- | --- | --- |
| Cn1nc(C(F)(F)F)c(-c2ccccc2OC(F)(F)F)c1-c1ccc(OCc2ccc(Cl)cc2)cc1O [compound 0198410] | 44 | – | – |
| CCc1ccc(Oc2c(-c3ccc(O)cc3O)nn(C)c2C(F)(F)F)cc1 [compound 0198411] | – | 30 | – |
| Cn1nc(C(F)(F)F)cc1-c1ccc(OCc2ccc(Cl)cc2)cc1O [compound 0198412] | 91 | – | – |
| Oc1cc(Nc2ccc(Cl)cc2)ccc1-c1cc(C(F)(F)F)[nH]n1 [compound 0200491] | – | 0 | 73 |
| Cn1nc(-c2ccc(Nc3ccc(Cl)cc3)cc2O)cc1C(F)(F)F [compound 0200492] | 24 | – | 92 |
| Oc1cc(NCc2ccc(Cl)cc2)ccc1-c1cc(C(F)(F)F)[nH]n1 [compound 0200493] | 42 | – | 92 |
| Cn1nc(-c2ccc(NCc3ccc(Cl)cc3)cc2O)cc1C(F)(F)F [compound 0200494] | 89 | – | 99 |
| Oc1ccc(-c2n[nH]c(C(F)(F)F)c2-c2cc(C(F)(F)F)cc(C(F)(F)F)c2)c(O)c1 [compound 0200495] | 8 | – | 86 |
| COc1ccc(-c2c(-c3ccc(O)cc3O)n[nH]c2C(F)(F)F)cc1OC [compound 0200496] | 81 | – | 98 |
| Nc1ccc(-c2cc(C(F)(F)F)[nH]n2)c(O)c1 [compound 0200497] | 109 | – | 107 |
| Cn1nc(-c2ccc(N)cc2O)cc1C(F)(F)F [compound 0200498] | 101 | – | 100 |
| Oc1cc(OCc2ccc(Cl)cc2)ccc1-c1cc(C(F)(F)F)n(Cc2ccccc2)n1 [compound 0200499] | 100 | – | 109 |
| Oc1cc(OCc2ccc(Cl)cc2)ccc1-c1cc(C(F)(F)F)nc(-c2cc(C(F)(F)F)cc(C(F)(F)F)c2)n1 [compound 0200501] | 79 | – | 91 |
| Nc1nc(-c2ccc(OCc3ccc(Cl)cc3)cc2O)cc(C(F)(F)F)n1 [compound 0200502] | 94 | – | 64 |
| Oc1cc(Nc2ccc(F)c(F)c2)ccc1-c1cc(C(F)(F)F)[nH]n1 [compound 0200559] | 39 | – | 76 |
| Cn1nc(-c2ccc(Nc3ccc(F)c(F)c3)cc2O)cc1C(F)(F)F [compound 0200560] | 56 | – | 91 |
| Oc1cc(Nc2ccc3c(c2)OCO3)ccc1-c1cc(C(F)(F)F)[nH]n1 [compound 0200561] | 59 | – | 91 |

Now from value to molecule:

| remaining activity at 100 µM [%] | Bound DNA (%) (100uM) | remaining activity at 50 µM [%] | Structure (SMILES) |
| --- | --- | --- | --- |
| 69 | – | – | Cn1nc(C(F)(F)F)c(-c2ccc(C(N)=O)cc2)c1-c1ccc(OCc2ccc(Cl)cc2)cc1O [compound 0198409] |
| 100 | – | 99 | CCOC(=O)c1[nH]nc(-c2ccc(OCc3ccc(Cl)cc3)cc2O)c1-c1ccc(C#N)cc1 [compound 0200489] |
| 99 | – | 97 | Oc1cc(OCc2ccc(Cl)cc2)ccc1-c1n[nH]c(C(F)(F)F)c1Cc1ccccc1Cl [compound 0200490] |
| 109 | – | 100 | Oc1cc(OCc2ccc(Cl)cc2)ccc1-c1cc(C(F)(F)F)nc(-c2cccc(C(F)(F)F)c2)n1 [compound 0200500] |
| 91 | – | 89 | Oc1cc(OCc2ccc(Cl)cc2)ccc1-c1cc(C(F)(F)F)nc(-c2ccc(F)cc2)n1 [compound 0200503] |
| 53 | – | 46 | N#Cc1cccc(-c2c(-c3ccc(OCc4ccc(Cl)cc4)cc3O)n[nH]c2C(N)=O)c1 [compound 0200557] |
| 9 | – | 20 | Cn1nc(-c2ccc(OCc3ccc(Cl)cc3)cc2O)c(-c2cccc(C#N)c2)c1C(N)=O [compound 0200558] |
